# Data from patent US20220380347A1, “INHIBITORS OF CYSTEINE PROTEASES AND METHODS OF USE THEREOF” (Pardes Biosciences, Inc., priority 2020, published 2022).
# Where two headings read alike, the source gives them in different places.
# Experiments:
# HCoV 229E = HCoV 229E cytopathic effect (CPE) assay, CellTiter Glo; type: cell-based, human coronavirus (HCov) 229E; conditions: protection of virus-induced CPE
# Experimental: Example 238: Evaluation of antiviral activity of compounds against human coronavirus (HCov) 229E and OC43 in the cytopathic effect (CPE) assays
# Compounds were assayed using standard methods against multiple coronaviral strains, including HCoV 229E and OC43 strains. The antiviral activity of compounds was calculated based on the protection of the virus-induced CPE at each concentration normalized by the virus control.
# Cytopathic effect (CPE) was measured by CellTiter Glo following the manufacturer's manual. The antiviral activity of compounds was calculated based on the protection of the virus-induced CPE at each concentration normalized by the virus control.
# Cell viability was measured with CellTiter Glo.
# [1] = biological target: COVID-19 (nCoV-2019, SARS-CoV2) Mpro (Severe acute respiratory syndrome coronavirus 2, UniProt P0DTD1); test: COVID-19 (nCoV-2019, SARS-CoV2) Mpro enzymatic assay; type: biochemical; conditions: 25 nM Mpro, 25 μM substrate; read-out: COVID-19 Mpro IC50
# HCov OC43 = test: HCoV OC43 cytopathic effect (CPE) assay, CellTiter Glo; type: cell-based, human coronavirus (HCov) OC43
# 229E Mpro = 229E Mpro (Human coronavirus 229E, UniProt P0C6X1); test: 229E Mpro enzymatic assay (standard methods, SARS-CoV2 Mpro assay given as exemplary); type: biochemical, human coronavirus (HCov) 229E
# Sequence of 229E Mpro (P0C6X1 2966-3267): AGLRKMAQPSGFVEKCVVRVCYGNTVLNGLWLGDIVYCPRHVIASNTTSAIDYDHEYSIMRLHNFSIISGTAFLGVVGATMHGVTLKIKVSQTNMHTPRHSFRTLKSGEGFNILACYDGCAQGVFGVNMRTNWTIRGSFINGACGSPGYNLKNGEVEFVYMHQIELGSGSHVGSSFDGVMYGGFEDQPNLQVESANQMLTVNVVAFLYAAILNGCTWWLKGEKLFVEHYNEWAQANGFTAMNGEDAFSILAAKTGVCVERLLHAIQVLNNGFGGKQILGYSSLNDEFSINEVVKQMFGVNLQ
# In short: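 Run by standard methods, with the SARS-CoV-2 Mpro protocol given as the model: E. coli-expressed C-His6 protease at 25 nM and substrate at 25 μM (Km 13.5 μM). Buffer pH 7.3 with 5 mM TCEP and 0.1% BSA; % inhibition versus controls fitted to variable-slope log(inhibitor)-response for IC50.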
# [2] = read-out: OC43 IC50 (uM) MEDIAN, median
# [3] = Betacoronavirus 1, OC43, read-out: OC43 IC50 (uM) MEDIAN, median
SMILES,EC50 (HCoV 229E; unidentified human coronavirus) [nM],IC50 [1] [nM],EC50 (229E Mpro; 229E Mpro EC50) [nM],further results
"CC(C)(C)c1ccc(N(C(=O)[C@H]2CC(=O)CN2C#N)C(C(=O)NC2CCCCC2)c2cccnc2)cc1 (single isomer, unassigned) [Compound 278 Isomer 2]",2000 to 10000,2000 to 10000,–,IC50 (HCov OC43; [2]): 10 to 30 µM; EC50 (229E Mpro; read-out: 229E Mpro EC50): < 2000 nM
"CC1(C(=O)N(c2ccc(C(C)(C)C)cc2)C(C(=O)NC2CCCCC2)c2cccnc2)CN(C#N)C1 (stereo not shown) [Compound 128, N-(4-tert-butylphenyl)-1-cyano-N-[2-(cyclohexylamino)-2-oxo-1-(3-pyridyl)ethyl]-3-methyl-azetidine-3-carboxamide]",2000 to 10000,10000 to 30000,2000 to 10000,–
"CC(C)(C)c1ccc(N(C(=O)[C@H]2CCCN2C#N)C(C(=O)NCC2COC2)c2cccnc2)cc1 (single isomer, unassigned) [Compound 419 Isomer 1]",2000 to 10000,< 2000,< 2000,IC50 (HCov OC43; [3]): 2 to 10 µM
"CC(C)(C)O[C@@H]1C[C@H](C(=O)N(c2ccc(C(C)(C)C)cc2)C(C(=O)NC2CCCCC2)c2cccnc2)N(C#N)C1 (single isomer, unassigned) [Compound 299 Isomer 2]",< 2000,< 2000,< 2000,"IC50 (HCov OC43; read-out: OC43 IC50 (uM) MEDIAN, median, listed as 299 Isomer 2): 2 to 10 µM"
"CC(C)(C)c1ccc(N(C(=O)[C@H]2CC(F)(F)CN2C#N)C(C(=O)NC2CCCCC2)c2cccnc2)cc1 (single isomer, unassigned) [Compound 876 Isomer 1]",< 2000,2000 to 10000,< 2000,"IC50 (HCov OC43; read-out: OC43 IC50 (uM) MEDIAN, median, listed as 876 Isomer 1): 10 to 30 µM"
"CC(C)(C)c1ccc(N(C(=O)[C@H]2CCCN2C#N)C(C(=O)NC2CCCCC2)c2cncc(F)c2)cc1 (stereo partly drawn) [Compound 475, (2R)—N-(4-(tert-butyl)phenyl)-1-cyano-N-(2-(cyclohexylamino)-1-(5-fluoropyridin-3-yl)-2-oxoethyl)pyrrolidine-2-carboxamide]",< 2000,–,–,–
"CC(C)(C)c1ccc(N(C(=O)[C@@]2(C)CCCN2C#N)C(C(=O)NC2CCCCC2)c2cccnc2)cc1 (single isomer, unassigned) [Compound 238 Isomer 1]",2000 to 10000,–,–,–
CC(C)(C)c1ccc(N(C(=O)C2CCC(F)(F)CN2C#N)C(C(=O)NC2CCCCC2)c2cccnc2)cc1 (stereo not shown) [Compound 885],2000 to 10000,–,–,–
CO[C@@H]1C[C@H](C(=O)N(c2ccc(S(F)(F)(F)(F)F)cc2)C(C(=O)N2CCNCC2)c2cccnc2)N(C#N)C1 (stereo partly shown) [Compound 1149],< 2000,–,–,–
"CC(C)(C)c1ccc(N(C(=O)[C@H]2Cc3ccccc3CN2C#N)C(C(=O)NC2CCCCC2)c2cccnc2)cc1 (single isomer, unassigned) [Compound 374]",< 2000,–,–,–
"CC(C)(C)c1ccc(N(C(=O)[C@@]2(C)CCCN2C#N)C(C(=O)NC2CCCCC2)c2cccnc2)cc1 (single isomer, unassigned) [Compound 238 Isomer 2]",–,–,–,EC50 (HCoV 229E): < 2000 nM
"N#CN1C[C@H](O)C[C@@H]1C(=O)N(c1ccc(C2(C(F)(F)F)CC2)cc1)C(C(=O)NC1CCC(F)(F)CC1)c1cncc(F)c1 (single isomer, unassigned) [815 Isomer 1]",< 2000,–,–,–
"CC(C)(C)c1ccc(N(C(=O)[C@H]2CCCN2C#N)C(C(=O)NC2CCCCC2)c2cccnc2)cc1 (single isomer, unassigned) [Compound 1248 Isomer 1]",< 2000,–,–,–
"CC(C)(C)c1ccc(N(C(=O)[C@H]2CCC(C)(C)N2C#N)C(C(=O)NC2CCCCC2)c2cccnc2)cc1 (stereo partly drawn) [Compound 262, (2R)—N-(4-tert-butylphenyl)-1-cyano-N-[2-(cyclohexylamino)-2-oxo-1-(3-pyridyl)ethyl]-5,5-dimethyl-pyrrolidine-2-carboxamide]",< 2000,–,–,–
CC(C)(C)c1ccc(N(C(=O)C2c3ccccc3CN2C#N)C(C(=O)NC2CCCCC2)c2cccnc2)cc1 (stereo not shown) [Compound 371],< 2000,–,–,–
"N#CN1C[C@H](O)C[C@@H]1C(=O)N(c1ccc(C2(C(F)(F)F)CC2)cc1)C(C(=O)NC1CCC(F)(F)CC1)c1cncc(F)c1 (single isomer, unassigned) [815 Isomer 2]",–,–,–,EC50 (HCoV 229E): < 2000 nM
"CC(C)(C)c1ccc(N(C(=O)[C@H]2C[C@@H](O)CN2C#N)C(C(=O)NC2CCCCC2)c2cccnc2)cc1 (single isomer, unassigned) [Compound 254 Isomer 1]",–,2000 to 10000,–,EC50 (HCoV 229E): 2000 to 10000 nM; EC50 (229E Mpro; read-out: 229E Mpro EC50): < 2000 nM
"C[C@H]1CC[C@H](C(=O)N(c2ccc(C(C)(C)C)cc2)C(C(=O)NC2CCCCC2)c2cccnc2)N1C#N (single isomer, unassigned) [Compound 247 Isomer 1]",< 2000,2000 to 10000,< 2000,–

SMILES,EC50 (HCoV 229E; unidentified human coronavirus) [nM],IC50 [1] [nM],EC50 (229E Mpro; 229E Mpro EC50) [nM],further results
"COc1ccc(NC(=O)C(c2cccnc2)N(C(=O)[C@H]2CCCN2C#N)c2ccc(C(C)(C)C)cc2)cn1 (stereo partly drawn) [Compound 407, (2R)—N-(4-(tert-butyl)phenyl)-1-cyano-N-(2-((6-methoxypyridin-3-yl)amino)-2-oxo-1-(pyridin-3-yl)ethyl)pyrrolidine-2-carboxamide]",< 2000,–,–,–
CC(C)(C)c1ccc(N(C(=O)[C@H]2CCCN2C#N)C(C(=O)N2CCOCC2)c2cccnc2)cc1 (stereo partly shown) [Compound 959],2000 to 10000,–,–,–
"CC(C)(C)c1ccc(N(C(=O)[C@H]2C[C@H](O)CN2C#N)C(C(=O)NC2CCCCC2)c2cccnc2)cc1 (single isomer, unassigned) [Compound 255 Isomer 1]",–,2000 to 10000,< 2000,EC50 (HCoV 229E; listed as 255 Isomer 1): 10000 to 30000 nM
"CC(C)(C)c1ccc(N(C(=O)[C@H]2C[C@@H](O)CN2C#N)C(C(=O)NC2CCCCC2)c2cccnc2)cc1 (single isomer, unassigned) [Compound 254]",< 2000,< 2000,< 2000,–
"CC(C)(C)c1ccc(N(C(=O)[C@H]2[C@H](F)CCN2C#N)C(C(=O)NC2CCCCC2)c2cccnc2)cc1 (stereo partly drawn) [Compound 910, (2S,3R)—N-(4-tert-butylphenyl)-1-cyano-N-[2-(cyclohexylamino)-2-oxo-1-(3-pyridyl)ethyl]-3-fluoro-pyrrolidine-2-carboxamide]",< 2000,–,–,–
"CC(C)(C)c1ccc(N(C(=O)[C@H]2CCCN2C#N)C(C(=O)NCCN2CCOCC2)c2cccnc2)cc1 (stereo partly drawn) [Compound 391, (2R)—N-(4-(tert-butyl)phenyl)-1-cyano-N-(2-((2-morpholinoethyl)amino)-2-oxo-1-(pyridin-3-yl)ethyl)pyrrolidine-2-carboxamide]",2000 to 10000,–,–,–
"CC(C)(C)c1ccc(N(C(=O)[C@H]2COCCN2C#N)C(C(=O)NC2CCCCC2)c2cccnc2)cc1 (single isomer, unassigned) [Compound 202 Isomer 1]",< 2000,< 2000,< 2000,–
O=C(NC1CCCCC1)C(c1cnnc2ccccc12)N(C(=O)[C@H]1C[C@@H](O)CN1)c1ccc(S(F)(F)(F)(F)F)cc1 (stereo partly shown) [Compound 988],< 2000,–,–,–
"CC(C)(C)c1ccc(N(C(=O)[C@H]2CCCN2C#N)C(C(=O)NC2CCCCC2)c2cccnc2)cc1 (single isomer, unassigned) [Compound 1248 Isomer 2]",–,–,–,EC50 (HCoV 229E): 2000 to 10000 nM
COc1cncc(C(C(=O)NC2CCCCC2)N(C(=O)[C@H]2C[C@@H](O)CN2C#N)c2ccc(C(C)(C)C)cc2)c1 (stereo partly shown) [Compound 992],2000 to 10000,–,–,–
"CC(C)(C)c1ccc(N(C(=O)[C@H]2C[C@H](O)CN2C#N)C(C(=O)NC2CCCCC2)c2cccnc2)cc1 (single isomer, unassigned) [Compound 255 Isomer 2]",–,< 2000,–,EC50 (HCoV 229E; listed as 255 Isomer 2): < 2000 nM; EC50 (229E Mpro; read-out: 229E Mpro EC50): < 2000 nM
"N#CN1C[C@@H](F)C[C@@H]1C(=O)N(c1ccc(S(F)(F)(F)(F)F)cc1)C(C(=O)NC1CCC(F)(F)CC1)c1cncc(F)c1 (single isomer, unassigned) [Compound 1099 Isomer 1]",–,< 2000,< 2000,IC50 (HCov OC43; [3]): < 2 µM
"C[C@@]1(O)C[C@H](C(=O)N(c2ccc(-c3ccccc3)cc2)C(C(=O)NC2CCC(F)(F)CC2)c2cncc(F)c2)N(C#N)C1 (single isomer, unassigned) [1330 Isomer 1]",–,< 2000,< 2000,IC50 (HCov OC43; [2]): < 2 µM
"CO[C@@H]1C[C@H](C(=O)N(c2ccc(S(F)(F)(F)(F)F)cc2)C(C(=O)NC2CC3CCC(C2)O3)c2cccnc2)N(C#N)C1 (single isomer, unassigned) [1187 Isomer 2]",–,< 2000,–,IC50 (HCov OC43; [2]): < 2 µM; EC50 (229E Mpro; read-out: 229E Mpro EC50): < 2000 nM
"CO[C@@H]1C[C@H](C(=O)N(c2ccc(S(F)(F)(F)(F)F)cc2)C(C(=O)NC2CCC(F)(F)CC2)c2cncc(F)c2)N(C#N)C1 (single isomer, unassigned) [1265 Isomer 1]",–,< 2000,< 2000,IC50 (HCov OC43; [3]): < 2 µM
"CO[C@@H]1C[C@H](C(=O)N(c2ccc(S(F)(F)(F)(F)F)cc2)C(C(=O)NC2CCOC(C)(C)C2)c2cccnc2)N(C#N)C1 (single isomer, unassigned) [1165 Isomer 1]",–,< 2000,< 2000,IC50 (HCov OC43; [3]): < 2 µM
"CC(C)(C)c1ccc(N(C(=O)[C@H]2C[C@@H](O)CN2C#N)C(C(=O)NC2CCCCC2)c2cncc(Cl)c2)cc1 (single isomer, unassigned) [675 Isomer 1]",–,< 2000,< 2000,IC50 (HCov OC43; [3]): < 2 µM
